# Measurements taken from publication PMC5813016 (Nature Communications, 2018).
# Values joined by “and” are separate entries in the source; they are usually repeats but may differ in a detail not shown here. Identical values can stand only once.
# Experiments:
# human D1R S188I mutant = assay: cAMP assay, D1R mutant S188I; settings: relative to wild-type D1R; each table line is one experiment (Experiment # 1-6)
# human D1R S199A mutant = assay: cAMP assay, D1R mutant S199A; settings: relative to wild-type D1R; each table line is one experiment (Experiment # 1-6)
# human D1R F288A mutant = assay: cAMP assay, D1R mutant F288A; settings: relative to wild-type D1R; each table line is one experiment (Experiment # 1-6)
# human D1R N292A mutant = assay: cAMP assay, D1R mutant N292A; settings: relative to wild-type D1R; each table line is one experiment (Experiment # 1-6)
# human D1R W321A mutant = assay: cAMP assay, D1R mutant W321A; settings: relative to wild-type D1R; each table line is one experiment (Experiment # 1-6)
# [1] = Rat pharmacokinetic studies; assay type: in vivo, Wistar Hannover rat; settings: for plasma concentration profile after oral administration: compared with SKF-38393; for clearance / Vd / bioavailability / half-life: male, Wistar Hannover, plasma; for clearance / Vd: iv; for Vd: read-out: Vdss; for bioavailability: oral bioavailability; for half-life: read-out: t½ (converted)
# Description: Rat pharmacokinetic studies were conducted at BioDuro, Pharmaceutical Product Development, Inc. (Shanghai, China). Wistar Hannover rats (227–293 gram weight) were obtained from Vital River Laboratories (China). All animal studies were conducted in accordance with the Pfizer Institutional Animal Care and Use Committee (Groton, CT), using protocols approved by Pfizer PDM′s Global BA Committee (2009). Jugular vein-cannulated male Wistar Hanover rats were maintained on a 12 h light/dark cycle for a minimum of three days in a temperature-controlled and humidity-controlled environment with free access to food and water. Individual animals (n = 2 or 3 per dose/route) were administered a single dose of compound by either intravenous injection via tail vein or oral gavage based on body weight. […] The PF-6142 intravenous dose (1 mg/kg) was formulated in saline acidified with three molar equivalents of 1 N hydrochloric acid and the PF-6142 oral dose (5 mg/kg) was formulated in 0.5% methylcellulose. […] Formulations were agitated until all of the test article was dissolved. […] From each rat, serial blood samples were collected via jugular vein cannula prior to dose administration and at the following time points post-dose: 0.033 (i.v. only), 0.083, 0.25, 0.5, 1, 2, 4, 7, and 24 h. […] All blood samples were placed on wet ice until centrifugation. Following centrifugation, the plasma was transferred to polypropylene tubes and stored frozen at either −20 °C to −80 °C until analysis. Urine was collected from all intravenous-dosed rats into collection tubes from the collection intervals of 0–7 h and 7–24 h post-dose. […] All urine samples were stored at −80 °C until analysis. All samples were processed for quantitation of compound concentrations using protein precipitation methodology followed by analysis using liquid chromatography-tandem mass spectrometry (LC-MS/MS). […] The pharmacokinetic parameters (including those in Supplementary Table 3) were computed by non-compartmental analysis[61] using Watson Bioanalytical LIMS version 7.4 (Thermo Fischer Scientific, CA).
# human D1R T59A mutant = assay: cAMP assay, D1R mutant T59A; settings: relative to wild-type D1R; each table line is one experiment (Experiment # 1-6)
# human D1R S107A mutant = assay: cAMP assay, D1R mutant S107A; settings: relative to wild-type D1R; each table line is one experiment (Experiment # 1-6)
# human D1R I117A mutant = assay: cAMP assay, D1R mutant I117A; settings: relative to wild-type D1R; each table line is one experiment (Experiment # 1-6)
# [2] = Plasma concentrations in monkey EBR study; assay type: in vivo, cynomolgus monkey; settings: mean ± SD
# Description: For both compounds, blood collections occurred on day 1, day 2, and day 3. All blood samples were placed on wet ice until centrifugation. Following centrifugation, the plasma was transferred to polypropylene tubes and stored frozen at –20 °C to –80 °C until analysis.
# [3] = Equilibrium dialysis, unbound fraction in rat brain homogenate; assay type: in vitro ADME; settings: read-out: unbound fraction in rat brain homogenate (fu,b)
# [4] = 1 mg/kg/day subcutaneous dose, Day 1, 1 h post-dose
# [5] = 1 mg/kg/day subcutaneous dose, Day 1, 6 h post-dose
# [6] = 1 mg/kg/day subcutaneous dose, Day 2, 1 h post-dose
# [7] = 1 mg/kg/day subcutaneous dose, Day 2, 6 h post-dose
# [8] = 1 mg/kg/day subcutaneous dose, Day 3, 1 h post-dose
# [9] = 1 mg/kg/day subcutaneous dose, Day 3, 6 h post-dose
# [10] = 0.9 mg/kg/day split oral dose, Day 1, 5 h post-dose
# [11] = 0.9 mg/kg/day split oral dose, Day 2, 1 h post-dose
# [12] = 0.9 mg/kg/day split oral dose, Day 2, 5 h post-dose
# [13] = 0.9 mg/kg/day split oral dose, Day 3, 1 h post-dose
# [14] = 0.9 mg/kg/day split oral dose, Day 3, 5 h post-dose
fraction unbound [3],SMILES,"fold shift of cAMP functional potency, S188I (EC50 mutant/ EC50 WT) (human D1R S188I mutant)","fold shift of cAMP functional potency, S199A (EC50 mutant/ EC50 WT) (human D1R S199A mutant)","fold shift of cAMP functional potency, F288A (EC50 mutant/ EC50 WT) (human D1R F288A mutant)","fold shift of cAMP functional potency, N292A (EC50 mutant/ EC50 WT) (human D1R N292A mutant)","fold shift of cAMP functional potency, W321A (EC50 mutant/ EC50 WT) (human D1R W321A mutant)",plasma concentration profile after oral administration [1],clearance [1] [mL/min/kg],Vd [1] [L/kg],bioavailability [1] [%],half-life [1] [min],"fold shift of cAMP functional potency, T59A (EC50 mutant/ EC50 WT) (human D1R T59A mutant)","fold shift of cAMP functional potency, S107A (EC50 mutant/ EC50 WT) (human D1R S107A mutant)","fold shift of cAMP functional potency, I117A (EC50 mutant/ EC50 WT) (human D1R I117A mutant)",also measured
,Cc1cc(Oc2nccc3occc23)ccc1-c1c(C)ncnc1C [PF-8871],5.8 and 10.8 and 8.7,4.3,146.3,30.7,21.4,,,,,,,,,
,Cc1cc(Oc2nccc3occc23)ccc1-c1c(C)ncc2nccn12 [PF-6142],10.6 and 8.5 and 10.1 and 6.7,8.7 and 10.0,141.2 and 88.7,23.7 and 30.6,22.7 and 21.1,more sustained plasma concentration profiles,42.5,2.4,85.4,66,1.0,2.3,9.8,
0.0012,"NC[C@@H]1O[C@H](C23CC4CC(CC(C4)C2)C3)Cc2c1ccc(O)c2O [A-77636, reference compound]",,,,,,,,,,,,,,"Cp (total plasma concentration) [2, 4]: 79.3 ± 11.4 ng/mL; Cp,u (unbound plasma concentration) [2, 4]: 10.6 ± 1.5 nM; Cp (total plasma concentration) [2, 5]: 34.8 ± 3.5 ng/mL; Cp,u (unbound plasma concentration) [2, 5]: 4.6 ± 0.5 nM; Cp (total plasma concentration) [2, 6]: 73.1 ± 13.8 ng/mL; Cp,u (unbound plasma concentration) [2, 6]: 9.8 ± 1.8 nM; Cp (total plasma concentration) [2, 7]: 46.3 ± 11.7 ng/mL; Cp,u (unbound plasma concentration) [2, 7]: 6.2 ± 1.6 nM; Cp (total plasma concentration) [2, 8]: 85.5 ± 19.0 ng/mL; Cp,u (unbound plasma concentration) [2, 8]: 11.4 ± 2.5 nM; Cp (total plasma concentration) [2, 9]: 40.6 ± 2.8 ng/mL; Cp,u (unbound plasma concentration) [2, 9]: 5.4 ± 0.4 nM"
0.021,Cc1n[nH]c(=O)c(C)c1-c1ccc(Oc2nccc3occc23)cc1F [PF-2334],,,,,,more sustained plasma concentration profiles,20.8,1.2,57.2,48,,,,"Cp (total plasma concentration) ([2]; 0.9 mg/kg/day split oral dose (0.6 + 0.3 mg/kg 8 h later), Day 1, 1 h post-dose): 41.9 ± 9.4 ng/mL; Cp,u (unbound plasma concentration) ([2]; 0.9 mg/kg/day split oral dose, Day 1, 1 h post-dose): 4.8 ± 1.1 nM; Cp (total plasma concentration) [2, 10]: 47.0 ± 13.9 ng/mL; Cp,u (unbound plasma concentration) [2, 10]: 5.4 ± 1.6 nM; Cp (total plasma concentration) [2, 11]: 71.4 ± 20.1 ng/mL; Cp,u (unbound plasma concentration) [2, 11]: 8.1 ± 2.3 nM; Cp (total plasma concentration) [2, 12]: 99.0 ± 36.3 ng/mL; Cp,u (unbound plasma concentration) [2, 12]: 11.3 ± 4.1 nM; Cp (total plasma concentration) [2, 13]: 89.5 ± 49.4 ng/mL; Cp,u (unbound plasma concentration) [2, 13]: 10.2 ± 5.6 nM; Cp (total plasma concentration) [2, 14]: 106 ± 40 ng/mL; Cp,u (unbound plasma concentration) [2, 14]: 12.1 ± 4.5 nM"
,Cc1cc(Oc2cccc(O)c2O)ccc1-c1c(C)ncnc1C [PF-1437],,,,,,,,,,,0.2,1.2,15.2,
